These results are taken from PubChem BioAssay (NCI).

Assay in all cases: NCI-60 cell line screen, 48 h
Test [1] relates to MCF7 breast.
The subject of test [2] is BT-549 breast.
Test [3] has as its system RXF 393 renal.
The subject of test [4] is MOLT-4 leukemia.
Test [5] concerns CCRF-CEM leukemia.
The subject of test [6] is RPMI-8226 leukemia.
Test [7] concerns UACC-62 melanoma.
Test [8] relates to A498 renal.
Test [9] has as its system SNB-19 CNS.
Test [10] deals with DU-145 prostate.

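Dose response: 5 concentrations. Exposure: 48 h. Format: 96-well plates. Endpoint: linear interpolation; highest concentration if not reached. GI50: concentration for 50% inhibition of growth. TGI: total growth inhibition.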 A value given as a limit tells only on which side of the number the result lay.

As to `O=C1/C(=C\c2ccco2)Oc2ccccc21`, the TGI in [1], in test [2], in test [3], in [4], in [5] and in test [6] was over 100 µM each time. Also, the TGI in [7], in [8], in test [9] and in test [10] was over 100 µM each time.

Take `O=C(CC1(O)C(=O)Nc2ccc(F)cc21)c1ccc(C(=O)NCC2CCC3(CC2)OOC2(CCCCC2)OO3)cc1` (stereo not given): the GI50 is 8.23 µM in test [1]; 12.6 µM in test [2]; 6.19 µM in test [3]; 3.72 µM in test [4]; 1.81 µM in test [5]; 2.57 µM in [6]. The GI50 in test [7] was 12.2 µM; in test [8], 13.3 µM; in test [9], 14.8 µM; in test [10] it was 3.49 µM. In addition, the TGI in [1] was found to be 29 µM; in [2], 34.6 µM; in test [3] it was 21.7 µM; in [4], 28.8 µM; in test [5], 4.3 µM; in [6], 8.55 µM. Besides, the TGI was 29 µM in test [7], 29.4 µM in [8], 36.5 µM in test [9] and 12.2 µM in [10].

Take `CCCCCCCCCc1ccc(OCCOCCOCCOCCOCCOCCOCCOCCOCCO)cc1`: the GI50 is 0.328 µM in [1]; 0.59 µM in test [2]; 1.03 µM in [3]; 0.704 µM in test [4]; 0.305 µM in test [5]; 0.0368 µM in test [6]. Moreover, the GI50 was 0.379 µM in [7], 0.665 µM in test [8], 0.617 µM in test [9] and 1.24 µM in [10]. For the same compound, the TGI in test [1] was 1.96 µM; in test [2] it was 1.61 µM; in test [3] it was 3.37 µM; in [4] it was 2.15 µM; in test [5], 2.04 µM; in test [6], 1.76 µM. Further, the TGI in test [7] came to 1.25 µM; in [8], 3.8 µM; in [9], 2.73 µM; in [10] it was 4.65 µM.

Consider `ClCc1cccc(Cn2cnc3c(Cl)nc(Cl)nc32)c1`, for which the GI50 in test [1] is 2.04 µM; in test [2], 1.69 µM; in test [3] it was 0.76 µM; in test [4], 3.35 µM; in [5], 2.72 µM; in test [6], 3.29 µM. The GI50 is 1.84 µM in test [7], 2.42 µM in test [8], 1.96 µM in test [9] and 1.59 µM in test [10]. Besides, the TGI in test [1] is 6.4 µM; in test [2], 3.23 µM; in [3], 2.1 µM; in [4] it was over 100 µM; in [5], over 100 µM; in test [6], over 100 µM. Further, the TGI came to 3.44 µM in test [7], 6.53 µM in test [8], 4.17 µM in test [9] and 2.98 µM in test [10].

For the compound `CN(Cc1ccc(F)cc1)c1ccc(CO)c(Cl)c1`, the GI50 in test [1] was 1.23 µM; in test [2] it was 12.3 µM; in test [3], 9.12 µM; in test [4] it was 21.8 µM; in test [5], 28.9 µM; in test [6], 12.4 µM. Besides, the GI50 is 0.323 µM in test [7], 0.0507 µM in test [8], 38.3 µM in test [9] and 29.1 µM in [10]. Further, the TGI is 21.5 µM in [1]; 39.9 µM in [2]; over 59 µM in [3]; 69.3 µM in test [4]; over 100 µM in test [5]; 60.6 µM in [6]. In addition, the TGI in test [7] was 3.32 µM; in test [8] it was 0.174 µM; in test [9], over 100 µM; in test [10], over 100 µM.

In the case of `COc1ccc(-c2c(C#N)c(N)nc(N3CCOCC3)c2C#N)cc1`, the GI50 in test [1] is 21.6 µM; in [2] it was 20.9 µM; in test [3], 16.9 µM; in test [4], 27.7 µM; in test [5] it was 17.9 µM; in [6], 16.1 µM. Further, the GI50 is 14.6 µM in test [7], 7.36 µM in test [8], 21.8 µM in test [9] and 27.3 µM in [10]. Also, the TGI in test [1] is 98.9 µM; in test [2] it was over 100 µM; in test [3] it was 47.2 µM; in [4] it was over 100 µM; in test [5], over 100 µM; in test [6], 58.7 µM. In addition, the TGI is 74.7 µM in test [7], 30.1 µM in test [8], over 100 µM in test [9] and over 100 µM in test [10].

On to `CCCC1(CN2c3ccccc3Sc3ccc(Cl)cc32)CCN(CC)C1` (stereo not given), for which the GI50 was 1.86 µM in test [1]; 1.8 µM in [2]; 1.54 µM in test [3]; 3.27 µM in test [4]; 3.49 µM in [5]; 2.59 µM in test [6]. Moreover, the GI50 in test [7] is 1.92 µM; in test [8], 1.6 µM; in test [9], 2 µM; in [10] it was 1.81 µM. The TGI in [1] is 3.5 µM; in test [2], 3.37 µM; in test [3] it was 2.94 µM; in [4], over 100 µM; in [5], over 100 µM; in test [6], 5.73 µM. Further, the TGI was found to be 3.6 µM in test [7], 3.12 µM in test [8], 3.78 µM in test [9] and 3.37 µM in test [10].

In the case of `CCn1cc(/C=C2\Oc3cc(OCC#N)ccc3C2=O)c2cc(OC)ccc21`, the GI50 was 0.209 µM in test [1]; 0.229 µM in test [2]; 0.152 µM in [3]; 0.187 µM in test [4]; 0.113 µM in test [5]; 0.214 µM in test [6]. Also, the GI50 in test [7] is 0.171 µM; in [8] it was 10.3 µM; in [9] it was 0.385 µM; in [10] it was 0.44 µM. The TGI in test [1] was over 100 µM; in [2], 20.3 µM; in test [3], 0.614 µM; in test [4], over 100 µM; in test [5], over 100 µM; in test [6], over 72.5 µM. The TGI in test [7] was over 53.4 µM; in test [8] it was over 100 µM; in [9], over 69.2 µM; in [10] it was over 62 µM.
